Tests used:
[1] = system: Lewis lung cancer cells; assay: Inhibitory activity of PACE4 to growth of metastasized cancerous focus in immunodeficient mice (lung weight, FIG. 9); format: in vivo, immunodeficient (Scid) mice
Source text: As a system for estimating inhibitory effects to growth of metastasized cancerous focus of PACE4 per se, immunodeficient (Scid) mice were employed. Lung cancer cells (3LL; provided from Cell Resource Center for Biomedical Research, Institute of Development, Aging and Cancer, Tohoku University) were subcutaneously transplanted to Scid mice at the back. The animals were bred until a primary cancerous focus grows up to a predetermined size. So that severity of disease conditions is taken into consideration, mice were divided into two groups based on the size of a primary cancerous focus; one with a primary cancerous focus weighing not more than 1200 mg and the other with a primary cancerous focus weighing more than 1200 mg. The primary cancerous focus in each group was removed surgically. Each group was then further divided into three groups: a group receiving a high or low concentration of PACE4, and a control group. The sample was administered to mice intraperitoneally at 40 μg/mouse/day or 8 μg/mouse/day for 10 days. As a control, the same amount of physiological saline, as used for dissolving the lyophilized sample, was administered to mice.
After completion of test, mice were dissected and the lung was weighed and compared with the control group (Mann Whetney U test).
To immunodeficient mice of 6 weeks old were transplanted subcutaneously 10^6 Lewis lung cancer cells (LL/2) at the back. The animals were bred for 14 to 17 days and cancer (primary cancerous focus) formed at the back was surgically removed. Based on size of the primary cancerous focus formed, the animals were divided into two groups: one with the primary cancerous focus of not more than 1200 mg (200 mg to 1200 mg) and the other of more than 1200 mg (1201 mg to 2500 mg). Each of these two groups was further divided into three groups: ones that received a high or low dose of the enzyme of the present invention (PACE4) and control. […]

[2] = system: plasmin; assay: Remaining plasmin activity after cleavage by PACE4 (FIG. 8); format: biochemical; conditions: with passage of time of cleavage by PACE4
Source text: Moreover, the enzyme of the present invention, producing angiostatin that comprises Kringles 1 to 4, also cleaves plasmin in the vicinity of its active center (between the 699th Phe and 700th Ala) to let plasmin be inactivated. This cleaving property of the enzyme is quite significant in view of efficient protection against cancer development. This is because angiostatin that inhibits growth of cancer is produced by fragmentation of plasminogen while the simultaneously produced active center of plasmin (plasmin serine protease domain) possibly further promotes cancer development. In addition, it is possible that vascularization and cancer invasion accelerated by the plasmin activity is further accelerated by removal of the Kringle domains. This is because such removal of the Kringle domains would attenuate the inhibitory activity of plasmin-inhibitory proteins occurring within the living body, including alpha 2 plasmin inhibitor (hereinafter referred to as “α2-PI”). Plasmin present in plasma is immediately inactivated by α2-PI circulating in the blood stream wherein the Kringle domains serve as a binding site between plasmin and α2-PI. Deprivation of the domains much reduces the activity of […]. […]

[3] = system: plasminogen; assay: Fragmentation of plasminogen by purified PACE4 at pH 7.0 or pH 4.0 (FIG. 6); format: biochemical, human; conditions: reacted at neutral and acidic ranges of pH
Method: FIG. 6 depicts fragmentation patterns of plasminogen when reacted at neutral and acidic ranges of pH. […] In FIG. 6, the arrow A (→A) indicates a band corresponding to angiostatin from PC-3 according to Gately et al. whereas the arrow B (→B) indicates a band corresponding to a fragment comprising Kringles 1 to 4 produced by PACE4. […] The N-terminal amino acid residue of each fragment was analyzed to be F-74 for A, P-452 for B and A-700 for C, respectively.

[4] = system: bovine aorta endothelial (BAE) cells; assay: Test for inhibitory activity to growth of vascular endothelial cells, bovine aorta endothelial cells; format: cell-based; design: dose or concentration left out as unconfirmed; conditions: cell count after 72 hours; plasminogen fragments
Method: The activity of the plasminogen fragments was also estimated as described by O'Reilly et al. using bovine aorta endothelial (BAE) cells purchased from Sanko Jun-yaku K.K. BAE cells were cultured for maintenance on a 24-well plate (manufactured by Iwaki Glass K.K.) coated with gelatin in a DMEM basal medium containing 10% fetal calf serum (FCS), 3 ng/ml basic FGF (bFGF), 1% glutamine, 1% penicillin and 1% streptomycin at 5% CO2. BAE cells were plated on a 24-well gelatin-coated plate at 12,500 cells/well and cultured on the basal medium deprived of bFGF for 24 hours. […] contained 5% FCS but was deprived of bFGF and the plasminogen fragments were reacted with the cells at 37° C. for 20 minutes. A physiological saline was used as a negative control whereas angiostatin (Angiostatin, manufactured by Technoclone) was used as a positive control. After reaction, the basal medium containing 5% FCS and 2 ng/ml bFGF was added and the cells were cultured at 37° C. for additional 72 hours. The cells were peeled off the well with trypsin/EDTA solution and counted with Coulter counter (manufactured by Coulter).

[5] = system: BCE (Bovine capillary endothelial); assay: Inhibition of BCE vascular growth by fibronectin degraded products; format: cell-based
Source text: (§1) The present inventors focused on fibronectin, a plasma component that is produced in great deal under cancerous conditions and is deeply involved in cell adhesion, and cleaved this with the enzyme of the present invention. […] The degraded products produced by the enzyme from fibronectin were separated with heparin Sepharose (Pharmacia). […] The obtained degraded products were estimated for their inhibitory activity to vascularization in the vascular endothelial cell system as described above.

[6] = system: vascular endothelial cells; assay: Inhibitory activity to growth of the vascular endothelial cells of plasma protein fragments produced by PACE4; format: cell-based; conditions: as described in Example 13
Source text: as §1
Moreover, the present inventors also cleaved several kinds of fractions obtained from alcoholic fractionation of plasma proteins with the enzyme of the present invention. Alcohol was removed from alcoholic fractions by dialysis, followed by dialysis with citric phosphate buffer (pH 4.0). The resulting fractions were mixed with the enzyme at a ratio of the protein to the enzyme, 100:1, and the mixture was reacted at 38° C. overnight. […]
A test for inhibitory activity to growth of vascular endothelial cells was performed as described by Gately et al. using Human Umbilical vein endothelial (HUV) cells (HUVEC; Sanko Jun-yaku K.K.). […] The cells were peeled off the well with trypsin/EDTA solution and counted with Coulter counter (manufactured by Coulter). […]

PACE4: about 45 kDa aspartic enzyme purified from PC-3 culture supernatant, N-terminus LVRIPLHKFT, high homology to human cathepsin D precursor
inhibitory activity to growth of metastasized cancerous focus (lung weight) ([1]; primary cancerous focus more than 1200 mg (B), 40 or 8 μg/mouse/day i.p. for 10 days, 3LL cells): exhibited inhibitory activity to growth of metastasized cancerous focus in a concentration dependent manner
inhibitory activity to increase in lung weight ([1]; primary cancerous focus more than 1200 mg, 10 or 2 μg/animal i.p. for 10 days, LL/2 cells): observed in a dose dependent manner
lung weight, PACE4 administration versus control ([1]; primary cancerous focus not more than 1200 mg, 10 or 2 μg/animal i.p. for 10 days, LL/2 cells): no significant difference
remaining plasmin activity [2]: plasmin activity disappears
pH range at which plasminogen is fragmented [3]: only at an acidic range of pH

angiostatin [reference compound]
inhibitory activity to growth of the vascular endothelial cells [4]: exhibited the inhibitory activity

fibronectin
inhibitory ability to BCE vascular growth [5]: not found
growth of the vascular endothelial cells (FIG. 15) [6]: no such inhibitory activity

— patent US20070117180A1, “Enzyme producing plasma protein fragment having inhibitory activity to metastasis and growth of cancer and plasma protein fragment produced by fragmentation by said enzyme” (priority 1998, published 2007)
